How the values were obtained:
[1] = LNP formulation comparison: RNA encapsulation efficiency, apparent pKa, LNP size and polydispersity; assay type: physicochemical; details: LNP with surrogate RNA coding for luciferase; among the screened cationic lipids
Experimental: (§1) An exemplary LNP delivery system was developed to effectively and safely deliver therapeutic nucleic acids into the cytosol of various cell types after local administration in vivo. The early formulation work was performed with several promising LNP formulations and surrogate RNA coding for luciferase. The aim of the experiments was to correlate the effect of different ionizable cationic lipids on the efficacy of RNA delivery by LNPs in vivo. Formulations were compared in terms of RNA encapsulation efficiency, apparent pKa, LNP size and polydispersity.

luciferase (Luc) RNA = assay: In vivo screening of LNP pilot batches using luciferase (Luc) RNA, intravenous administration; details: on the basis of the in vivo screening studies
Experimental: as §1
Based on this the ALC-0315/DSPC/CHOL/ALC-0159 prototype was submitted for in vivo screening. The results presented in FIG. 16 summarize the in vivo testing of two independent pilot batches using luciferase (Luc) RNA.
The formulation screening procedure described above involves intravenous administration resulting in delivery primarily to the liver. The mechanism of LNP uptake into hepatocytes is driven by binding of endogenous apolipoproteins to the LNP followed by receptor-mediated endocytosis e.g. through low density lipoprotein receptors. […] Luc expression was monitored at 4, 24, 72 and 96 hours post administration (FIG. 17).

For `CCCCCCCCC(CCCCCC)C(=O)OCCCCCCN(CCCCO)CCCCCCOC(=O)C(CCCCCC)CCCCCCCC` (centres unmarked) [ALC-0315, ((4-hydroxybutyl)azanediyl)bis(hexane-6,1-diyl)bis(2-hexyldecanoate)], the “physical characteristics regarding particle size, homogeneity, and RNA encapsulation efficiency” value [1] was “suitable physical characteristics” and the “potency as cationic lipid” value (luciferase (Luc) RNA) was “highly potent”.

— patent US11951185B2, “RNA constructs and uses thereof” (BioNTech SE, priority 2020, dated 2024)
